Consider two molecules from patent US20230355608A1, “TARGETING POLYCYTHEMIA VERA (PV)-INITIATING CELLS BY BLOCKING LEUKOTRIENE BINDING TO THEIR RECEPTORS” (UNIVERSITY OF MASSACHUSETTS, priority 2020, published 2023).

“Also recorded” adds a separate entry of the source.

Experiment [1] deals with JAK2V617F-induced PV mice. The protocol: The bone marrow cells from donor mice, pretreated with 5-fluorouracil (5-FU), were infected with retrovirus containing pMSCV-JAK2V617F-GFP under conditions for the induction of PV as described previously, followed by transplantation of the transduced cells into C57BL/6J recipient mice.
To test this hypothesis, bone marrow cells (BM) were collected for FCM analysis after 4 months treatment.
PV model was induced in mice as follows: Bone marrow cells from 5-FU-treated (200 mg/kg) donor mice were transduced twice with JAK2V617F retrovirus in the presence of IL-3, IL-6, and stem cell factor (SCF). The recipient mice received 1,100 cGy lethal gamma irradiation (given by 2 split 550-cGy doses), followed by 2.0×10^6 cells transplantation via tail vein injection.
Hematopoietic cells were collected from peripheral blood and bone marrow of the PV mice, and red blood cells (RBCs) were eliminated using RBC lysis buffer (pH 7.4). Then the cells were stained with fluorescence-labeled antibodies (Gr−1 for neutrophils, c-kit and Sca−1 for stem cells) and subjected to FACS analysis. These antibodies were purchased from eBioscience Biotechnology. Data were acquired on a FACS Calibur flow cytometric analyzer (Becton Dickinson).
Water was used as placebo.

Experiment [2] concerns HEL cells. Description: Apoptosis assay by FACS (Annexin V and 7-AAD). The class given is cell-based, human. The conditions noted are these: compared with Ba/F3 cells. The protocol: (§1) A mouse Ba/F3 cell line transduced with pMSCV-IRES-GFP was used as a control. Mouse JAK2V617F-GFP-expressing Ba/F3 cell line was kindly provided by Dr. Ross Levine (Human Oncology and Pathogenesis Program, Memorial Sloan-Kettering Cancer Center, New York, NY). Human JAK2V617F-expressing HEL cell line was purchased from ATCC. Cell lines were cultured in RPMI-1640 medium containing 10% FCS and 50 μmol/L 2-mercaptoethanol. Ba/F3 cell line was cultured in the medium mentioned above with 10 ng/ml IL3. C57BL/6J mice were obtained from The Jackson Laboratory.
(§2) Cell numbers were counted in duplicates by trypan blue (Sigma-Aldrich) exclusion at 24 h and 48 h, respectively. FACS analysis was applied for cell cycle test using Hoechst and Pyronin (Sigma-Aldrich) staining, and for apoptosis assay staining with Annexin V and 7-AAD (eBiosciences) according to the manufacturer's instructions. Results are expressed as the mean±SD.

For experiment [3], the system named is Ba/F3-JAK2V617F cells. In words: Cell-cycle progression by FACS (Hoechst and Pyronin). It is filed as cell-based, mouse. As for the experimental part:
as §1, §2

In a further experiment the test system is parental Ba/F3 cells. The description is as above. It is filed as cell-based, mouse. The following applies: parental Ba/F3 cells that do not express JAK2V617F. The protocol:
as §1, §2

The next experiment concerns K562 cells. The conditions noted are these: Yektaei-Karin et al. 2017; cited from earlier work.
The subject of experiment [4] is Ba/F3-JAK2V617F cells. Description: Apoptosis assay by FACS (Annexin V and 7-AAD). It is filed as cell-based, mouse. The conditions noted are these: compared with Ba/F3 cells. As for the experimental part:
as §1, §2

The subject of a further experiment is KU812 cells. The following applies: Yektaei-Karin et al. 2017; cited from earlier work.
Experiment [5] has as its system primary CD34+ blood cells from two CML patients. The following applies: Yektaei-Karin et al. 2017; cited from earlier work.
For experiment [6], the system named is JAK2V617F-expressing human HEL cells. In words: Cell growth, trypan blue exclusion cell count. The class given is cell-based. The conditions noted are these: various doses (10-40 μM), 24 and 48 hours. The protocol:
as §1, §2

In experiment [7] the test system is HEL cells. In words: Cell-cycle progression by FACS (Hoechst and Pyronin). It is filed as cell-based, human. The protocol:
as §1, §2

Experiment [8] has as its system JAK2V617F-expressing Ba/F3 cells. In words: Cell growth, trypan blue exclusion cell count. It is filed as cell-based, mouse. The following applies: various doses (10-40 μM), 24 and 48 hours. The protocol:
as §1, §2

The test system of a further experiment is Ba/F3 cells. Description: Cell growth, trypan blue exclusion cell count. It is filed as cell-based, mouse. The following applies: various doses (10-40 μM), 24 and 48 hours. The protocol: as §1, §2
In the next experiment the test system is KCL22 cells. The conditions noted are these: Yektaei-Karin et al. 2017; cited from earlier work.
In experiment [9] the test system is JAK2V617F-induced PV in mice. The following applies: Chen et al., Cancer Research 77(1):164-174; cited from earlier work.
For experiment [10], the system named is human CD34+ cells from Polycythemia Vera (PV) patients. The following applies: Chen et al., Cancer Research 77(1):164-174; cited from earlier work.
Setting [11] is: PV mice, 150 mg/kg once a day by gavage, vs placebo.
Where [12] appears, read: PV mice, 150 mg/kg once a day by gavage, vs placebo, from 3rd month post treatment.
The mark [13] stands for this setting: PV mice, 150 mg/kg once a day by gavage, vs placebo, 150 mg/kg.
[14] abbreviates: PV mice, after 4 months treatment, vs placebo.

Regarding `CC(C)(O)c1ccccc1CC[C@@H](SCC1(CC(=O)[O-])CC1)c1cccc(/C=C/c2ccc3ccc(Cl)cc3n2)c1.[Na+]` [Montelukast, (R-(E))-1-(((1-(3-(2-(7-Chloro-2-quinolinyl)ethenyl)phenyl)-3-(2-(1-hydroxy-1-methylethyl)phenyl)propyl)thio)methyl)-cyclopropaneacetic acid], the “non GFP (GFP-) cells (FIG. 5)” value in [1] (PV mice vs placebo, at 10 weeks) is reported as “showed a loss”. Moreover, the “GFP+ cells (FIG. 5)” value in experiment [1] (PV mice vs placebo, by 6 and 10 weeks post treatment) is “loss of the GFP+ cells”. Also, in experiment [1] (setting [11]), the “level of PLT” value was “did not significantly affect”. In addition, the “level of RBC” value in experiment [1] (setting [11]) was “did not significantly affect”. Further, the “GFP+Gr-1+ PV cell number in peripheral blood” value in experiment [1] (setting [12]) is given as “increased more slowly”. The “GFP+Gr-1+ PV cell percentage in peripheral blood” value in experiment [1] (setting [12]) is “increased more slowly”. Further, in experiment [1] (setting [13]), the HCT result is “had an inhibitor compound effect”. Further, in experiment [1] (setting [13]), the HGB entry is recorded as “had an inhibitor compound effect”. Moreover, the “fibrosis in bone marrow” value in experiment [1] (setting [13]) is recorded as “efficiently relieved the fibrosis; also recorded: efficiently relieved fibrosis morphology”. Further, the “GFP-Gr-1+ cell number in peripheral blood” value in experiment [1] (PV mice, 150 mg/kg once a day by gavage, vs placebo, normal cells, 150 mg/kg) is “didn't show significant difference; also recorded: did not show a significant difference”. Also, the “GFP+ PV cell number in BM” value in experiment [1] (setting [14]) is on record as “dramatic decrease”. Moreover, the “GFP+ PV cell percentage in BM” value in experiment [1] (setting [14]) is recorded as “dramatic decrease”. For the same molecule, the apoptosis entry in the experiment with HEL cells [2] and in the experiment on Ba/F3-JAK2V617F cells [4] was “more dramatic apoptosis” each time. The cell-cycle progression entry in the experiment on Ba/F3-JAK2V617F cells [3] is listed as “blockade of cell-cycle progression”; in the experiment on parental Ba/F3 cells, “no significant cell-cycle block effect”; with HEL cells [7] it was “blockade of cell-cycle progression”. Moreover, the cell growth result in the experiment on K562 cells is listed as “significantly reduced the growth”; in the experiment with KU812 cells, “significantly reduced the growth”; in experiment [5], “significantly reduced the growth”; in experiment [6], “dose-dependent growth inhibition”; in [8], “dose-dependent growth inhibition”; in the experiment on Ba/F3 cells, “dose-dependent growth inhibition”. The cell growth result in the experiment with KCL22 cells is reported as “significantly reduced the growth”.

Consider `CC(c1cc2ccccc2s1)N(O)C(N)=O` (centres unmarked) [Zileuton], for which, in experiment [9], the “development of PV in mice” value is “attenuates the development of PV”. Besides, the “proliferation of human CD34+ cells from PV patients” value in [10] is listed as “reducing proliferation”.
